Measurements reported in the NIST ThermoML archive (doi:10.1021/je400130b).
Numbers after ± are expanded uncertainties.

Experiment: molar heat capacity at constant pressure
Settings: 101.33 kPa, Crystal, Small (less than 1 g) adiabatic calorimetry

O=S(=O)([O-])[O-].[Cu+2].[Cu+2].[Cu+2].[OH-].[OH-].[OH-].[OH-] [copper(II) tetrahydroxide sulfate]
Settings | molar heat capacity at constant pressure [J/K/mol]
144.68 K | 141.3 ± 0.77
145.22 K | 142.14 ± 0.77
147.87 K | 144.34 ± 0.78
148.42 K | 144.91 ± 0.78
150 K | 146.3 ± 0.8
151.08 K | 147.15 ± 0.79
151.63 K | 147.79 ± 0.79
153.75 K | 149.17 ± 0.8
154.85 K | 150.6 ± 0.8
155.89 K | 151.01 ± 0.81
158.03 K | 152.89 ± 0.81
158.08 K | 153.14 ± 0.81
160 K | 154.8 ± 0.8
160.17 K | 154.93 ± 0.82
161.31 K | 155.76 ± 0.82
162.32 K | 156.42 ± 0.83
164.47 K | 158.12 ± 0.83
164.54 K | 158.38 ± 0.83
166.62 K | 159.83 ± 0.84
167.79 K | 161.29 ± 0.84
168.77 K | 161.72 ± 0.85
170 K | 162.9 ± 0.9
170.92 K | 163.42 ± 0.85
171.04 K | 163.63 ± 0.85
173.08 K | 165.15 ± 0.86
174.3 K | 166.52 ± 0.87
175.23 K | 166.71 ± 0.87
177.4 K | 168.6 ± 0.87
177.57 K | 168.98 ± 0.88
179.56 K | 169.93 ± 0.88
180 K | 170.9 ± 0.9
180.86 K | 171.6 ± 0.89
181.72 K | 171.53 ± 0.89
183.88 K | 173.5 ± 0.89
184.14 K | 174.07 ± 0.9
186.04 K | 174.91 ± 0.9
187.43 K | 176.58 ± 0.9
188.2 K | 176.89 ± 0.91
190 K | 178.5 ± 0.9
190.37 K | 178.59 ± 0.92
190.73 K | 179 ± 0.92
192.53 K | 179.84 ± 0.92
194.03 K | 181.5 ± 0.93
194.69 K | 181.95 ± 0.93
196.86 K | 183.62 ± 0.93
197.33 K | 184.05 ± 0.94
199.04 K | 185.07 ± 0.94
200 K | 185.9 ± 0.9
200.64 K | 186.38 ± 0.95
201.21 K | 186.11 ± 0.94
203.39 K | 188.25 ± 0.95
203.96 K | 188.7 ± 0.95
205.57 K | 189.66 ± 0.96
207.29 K | 191 ± 0.96
207.76 K | 190.53 ± 0.96
209.94 K | 192.52 ± 0.97
210 K | 192.8 ± 1
210.62 K | 193.2 ± 0.97
212.16 K | 193.78 ± 0.98
213.96 K | 195.29 ± 0.98
214.35 K | 195.47 ± 0.98
216.54 K | 197.08 ± 0.99
217.3 K | 197.61 ± 0.99
218.74 K | 198.53 ± 0.99
220 K | 199.5 ± 1
220.63 K | 199.85 ± 1
220.93 K | 199.41 ± 1
223.12 K | 200.77 ± 1
223.97 K | 202.1 ± 1
225.3 K | 202.74 ± 1
227.29 K | 204.34 ± 1
227.48 K | 203.96 ± 1
229.65 K | 205.76 ± 1
230 K | 206.1 ± 1
230.62 K | 206.56 ± 1
231.82 K | 207.32 ± 1
233.94 K | 208.88 ± 1
233.99 K | 208.88 ± 1
236.16 K | 210.12 ± 1
237.24 K | 210.9 ± 1
238.32 K | 211.49 ± 1
240 K | 212.7 ± 1.1
240.47 K | 213.05 ± 1.1
240.54 K | 213.1 ± 1.1
242.63 K | 214.29 ± 1.1
243.84 K | 215.04 ± 1.1
244.78 K | 215.47 ± 1.1
246.91 K | 216.48 ± 1.1
247.12 K | 217.09 ± 1.1
249.05 K | 217.96 ± 1.1
250 K | 218.9 ± 1.1
250.39 K | 219.06 ± 1.1
251.18 K | 219.63 ± 1.1
253.31 K | 221.05 ± 1.1
253.64 K | 221.26 ± 1.1
255.43 K | 222.37 ± 1.1
256.89 K | 223.31 ± 1.1
257.55 K | 223.64 ± 1.1
259.67 K | 224.86 ± 1.1
260 K | 225.1 ± 1.1
260.12 K | 225.23 ± 1.1
261.78 K | 226.04 ± 1.1
263.34 K | 227.07 ± 1.1
263.89 K | 227.38 ± 1.1
265.99 K | 228.04 ± 1.1
266.52 K | 229.07 ± 1.1
268.1 K | 229.52 ± 1.1
269.68 K | 230.88 ± 1.1
270 K | 231.1 ± 1.1
270.18 K | 231.01 ± 1.1
272.26 K | 232.16 ± 1.1
272.81 K | 232.32 ± 1.1
273.15 K | 232.9 ± 1.1
274.34 K | 233.42 ± 1.1
275.92 K | 234.35 ± 1.1
276.41 K | 234 ± 1.1
278.48 K | 235.58 ± 1.1
278.99 K | 236.21 ± 1.1
280 K | 236.7 ± 1.1
280.47 K | 237.16 ± 1.1
282.03 K | 237.88 ± 1.2
282.51 K | 238.07 ± 1.2
284.55 K | 239.1 ± 1.2
284.97 K | 239.95 ± 1.2
286.57 K | 240.28 ± 1.2
287.96 K | 241.21 ± 1.2
288.59 K | 241.63 ± 1.2
290 K | 242.2 ± 1.2
290.6 K | 242.66 ± 1.2
290.92 K | 242.32 ± 1.2
292.61 K | 243.54 ± 1.2
293.88 K | 243.77 ± 1.2
294.6 K | 244.61 ± 1.2
296.58 K | 245.63 ± 1.2
296.81 K | 245.8 ± 1.2
298.15 K | 246.6 ± 1.2
298.56 K | 246.66 ± 1.2
299.68 K | 247.51 ± 1.2
300 K | 247.6 ± 1.2
300.53 K | 247.64 ± 1.2
302.49 K | 248.72 ± 1.2
302.54 K | 249.04 ± 1.2
304.44 K | 249.67 ± 1.2
305.37 K | 250.52 ± 1.2
306.39 K | 250.6 ± 1.2
308.18 K | 251.84 ± 1.2
308.34 K | 251.49 ± 1.2
310 K | 252.8 ± 1.2
310.27 K | 252.37 ± 1.2
310.97 K | 253.24 ± 1.2
312.09 K | 253.75 ± 1.2
313.74 K | 254.51 ± 1.2
314.01 K | 254.23 ± 1.2
315.94 K | 255.03 ± 1.2
316.5 K | 255.82 ± 1.2
317.86 K | 255.92 ± 1.2
319.23 K | 257.03 ± 1.2
319.77 K | 256.66 ± 1.2
320 K | 257.4 ± 1.2
321.68 K | 257.57 ± 1.2
321.95 K | 258.16 ± 1.2
323.58 K | 258.37 ± 1.2
